Reference: PubChem BioAssay AID1259407 (Chemical Carcinogenesis Research Information System (CCRIS), 2018)
Active and inactive are the calls of the source. How the calls were made is not given here.

Tested on: CCRIS mutagenicity, Ames/micronucleus/aberration tests
Assay: CCRIS mutagenicity studies

In the case of `CCCCC(CC)COC(=O)c1ccccc1C(=O)OCC(CC)CCCC` (stereo not drawn), the mutagenic call (Test System: AMES SALMONELLA TYPHIMURIUM, Strain/Indicator: TA1535, Metabolic Activation: RAT LIVER S-9, PHENOBARBITAL AND BETA-NAPHTHOFLAVONE, Method: PREINCUBATION) is reported as “inactive; negative”, the mutagenic call (Test System: AMES SALMONELLA TYPHIMURIUM, Strain/Indicator: TA1535, Metabolic Activation: RAT, LIVER, S-9, AROCLOR 1254 (10%), Method: PREINCUBATION) is reported as “inactive; negative” and the mutagenic call (Test System: AMES SALMONELLA TYPHIMURIUM, Strain/Indicator: TA1535, Metabolic Activation: RAT, LIVER, S-9, AROCLOR 1254, Method: STANDARD PLATE) is reported as “inactive; negative”. For the same compound, the mutagenic call (Test System: AMES SALMONELLA TYPHIMURIUM, Strain/Indicator: TA1537, Metabolic Activation: HAMSTER, LIVER, S-9, AROCLOR 1254 (10%), Method: PREINCUBATION) was “inactive; negative”, the mutagenic call (Test System: AMES SALMONELLA TYPHIMURIUM, Strain/Indicator: TA1537, Metabolic Activation: NONE, Method: FLUCTUATION (MICROTITER)) was “inactive; negative” and the mutagenic call (Test System: AMES SALMONELLA TYPHIMURIUM, Strain/Indicator: TA1537, Metabolic Activation: NONE, Method: PREINCUBATION) was “inactive; negative”. For the same compound, the mutagenic call (Test System: AMES SALMONELLA TYPHIMURIUM, Strain/Indicator: TA1537, Metabolic Activation: NONE, Method: STANDARD PLATE) was “inactive; negative”, the mutagenic call (Test System: AMES SALMONELLA TYPHIMURIUM, Strain/Indicator: TA1537, Metabolic Activation: RAT LIVER S-9, AROCLOR 1254, Method: FLUCTUATION (MICROTITER)) was “inactive; negative” and the mutagenic call (Test System: AMES SALMONELLA TYPHIMURIUM, Strain/Indicator: TA1537, Metabolic Activation: RAT LIVER S-9, PHENOBARBITAL AND BETA-NAPHTHOFLAVONE, Method: PREINCUBATION) was “inactive; negative”. The mutagenic call (Test System: AMES SALMONELLA TYPHIMURIUM, Strain/Indicator: TA1537, Metabolic Activation: RAT, LIVER, S-9, AROCLOR 1254 (10%), Method: PREINCUBATION) was “inactive; negative”, the mutagenic call (Test System: AMES SALMONELLA TYPHIMURIUM, Strain/Indicator: TA1537, Metabolic Activation: RAT, LIVER, S-9, AROCLOR 1254, Method: STANDARD PLATE) was “inactive; negative” and the mutagenic call (Test System: AMES SALMONELLA TYPHIMURIUM, Strain/Indicator: TA1538, Metabolic Activation: NONE, Method: STANDARD PLATE) was “inactive; negative”. The mutagenic call (Test System: AMES SALMONELLA TYPHIMURIUM, Strain/Indicator: TA1538, Metabolic Activation: RAT, LIVER, S-9, AROCLOR 1254, Method: STANDARD PLATE) was “inactive; negative”, the mutagenic call (Test System: AMES SALMONELLA TYPHIMURIUM, Strain/Indicator: TA2638, Metabolic Activation: RAT LIVER S-9, PHENOBARBITAL AND 5,6-BENZOFLAVONE, Method: STANDARD PLATE) was “inactive; negative” and the mutagenic call (Test System: AMES SALMONELLA TYPHIMURIUM, Strain/Indicator: TA7001, Metabolic Activation: NONE, Method: FLUCTUATION (MICROTITER)) was “inactive; negative”. The mutagenic call (Test System: AMES SALMONELLA TYPHIMURIUM, Strain/Indicator: TA7001, Metabolic Activation: RAT LIVER S-9, AROCLOR 1254, Method: FLUCTUATION (MICROTITER)) was “inactive; negative”, the mutagenic call (Test System: AMES SALMONELLA TYPHIMURIUM, Strain/Indicator: TA7002, Metabolic Activation: NONE, Method: FLUCTUATION (MICROTITER)) was “inactive; negative” and the mutagenic call (Test System: AMES SALMONELLA TYPHIMURIUM, Strain/Indicator: TA7002, Metabolic Activation: RAT LIVER S-9, AROCLOR 1254, Method: FLUCTUATION (MICROTITER)) was “inactive; negative”. For the same compound, the mutagenic call (Test System: AMES SALMONELLA TYPHIMURIUM, Strain/Indicator: TA7003, Metabolic Activation: NONE, Method: FLUCTUATION (MICROTITER)) was “inactive; negative”, the mutagenic call (Test System: AMES SALMONELLA TYPHIMURIUM, Strain/Indicator: TA7003, Metabolic Activation: RAT LIVER S-9, AROCLOR 1254, Method: FLUCTUATION (MICROTITER)) was “inactive; negative” and the mutagenic call (Test System: AMES SALMONELLA TYPHIMURIUM, Strain/Indicator: TA7004, Metabolic Activation: NONE, Method: FLUCTUATION (MICROTITER)) was “inactive; negative”. For the same compound, the mutagenic call (Test System: AMES SALMONELLA TYPHIMURIUM, Strain/Indicator: TA7004, Metabolic Activation: RAT LIVER S-9, AROCLOR 1254, Method: FLUCTUATION (MICROTITER)) was “inactive; negative”, the mutagenic call (Test System: AMES SALMONELLA TYPHIMURIUM, Strain/Indicator: TA7005, Metabolic Activation: NONE, Method: FLUCTUATION (MICROTITER)) was “inactive; negative” and the mutagenic call (Test System: AMES SALMONELLA TYPHIMURIUM, Strain/Indicator: TA7005, Metabolic Activation: RAT LIVER S-9, AROCLOR 1254, Method: FLUCTUATION (MICROTITER)) was “inactive; negative”. For the same compound, the mutagenic call (Test System: AMES SALMONELLA TYPHIMURIUM, Strain/Indicator: TA7006, Metabolic Activation: NONE, Method: FLUCTUATION (MICROTITER)) was “inactive; negative”, the mutagenic call (Test System: AMES SALMONELLA TYPHIMURIUM, Strain/Indicator: TA7006, Metabolic Activation: RAT LIVER S-9, AROCLOR 1254, Method: FLUCTUATION (MICROTITER)) was “inactive; negative” and the mutagenic call (Test System: E. COLI, Strain/Indicator: WP2 (PKM101), Metabolic Activation: RAT LIVER S-9, PHENOBARBITAL, AND 5,6-BENZOFLAVONE, Method: STANDARD PLATE) was “inactive; negative”. The mutagenic call (Test System: E. COLI, Strain/Indicator: WP2 UVRA (PKM101), Metabolic Activation: RAT LIVER S-9, PHENOBARBITAL AND 5,6-BENZOFLAVONE, Method: STANDARD PLATE) was “inactive; negative”, the mutagenic call (Test System: E.COLI, Strain/Indicator: WP2UVRA, Metabolic Activation: NONE, Method: PREINCUBATION) was “inactive; negative” and the mutagenic call (Test System: E.COLI, Strain/Indicator: WP2UVRA, Metabolic Activation: RAT LIVER S-9, PHENOBARBITAL AND BETA-NAPHTHOFLAVONE, Method: PREINCUBATION) was “inactive; negative”. For the same compound, the mutagenic call (Test System: MOUSE LYMPHOMA, Strain/Indicator: L5178Y (TK+/+)/OUABAIN, Metabolic Activation: NONE, Method: SUSPENSION/PLATE) was “inactive; negative”, the mutagenic call (Test System: MOUSE LYMPHOMA, Strain/Indicator: L5178Y (TK+/+)/OUABAIN, Metabolic Activation: RAT LIVER S-9, AROCLOR 1254, Method: SUSPENSION/PLATE) was “inactive; negative” and the mutagenic call (Test System: MOUSE LYMPHOMA, Strain/Indicator: L5178Y (TK+/-)/TRIFLUROTHYMIDINE, Metabolic Activation: NONE, Method: SUSPENSION/PLATE) was “inactive; negative”. For the same compound, the mutagenic call (Test System: MOUSE LYMPHOMA, Strain/Indicator: L5178Y (TK+/-)/TRIFLUROTHYMIDINE, Metabolic Activation: RAT LIVER S-9, AROCLOR 1254, Method: SUSPENSION/PLATE) was “inactive; negative”, the mutagenic call (Test System: MOUSE LYMPHOMA, Strain/Indicator: L5178Y (TK+/TK-), Metabolic Activation: NONE, Method: SUSPENSION/PLATE) was “inactive; negative” and the mutagenic call (Test System: MOUSE LYMPHOMA, Strain/Indicator: L5178Y (TK+/TK-), Metabolic Activation: RAT, LIVER, S-9, AROCLOR 1254, Method: SUSPENSION/PLATE) was “active; positive”. The mutagenic call (Test System: MOUSE LYMPHOMA, Strain/Indicator: L5178Y (TK+/TK-), Metabolic Activation: RAT, LIVER, S-9, Method: SUSPENSION/PLATE) was “inactive; negative” and the mutagenic call (Test System: UDS RAT HEPATOCYTES, Strain/Indicator: THY INCORP, Metabolic Activation: NONE, Method: LIQUID SCINTILLATION COUNTING) was “active; positive”.
